Like-named read-outs stand apart in the source and are kept apart here.
Tests used:
GluA1 = biological target: T1, GluA1 (Rattus norvegicus, UniProt P19490); experiment: Whole-cell patch-clamp recording of homomeric GluA1 AMPAR expressed in HEK293T cells; assay type: cell-based; settings: for Amplitude with compound: 10 mM glutamate + 16 µM compound, mean±SEM; for Amplitude with compound / A/AI (current amplitude ratio without/with compound) / t deact (weighted deactivation time constant) / t des (weighted desensitization time constant) / Amplitude, applying glutamate alone after compound: n=8; for A/AI (current amplitude ratio without/with compound): 10 mM glutamate; for t deact (weighted deactivation time constant): 1 ms 10 mM glutamate + 16 µM compound; for t des (weighted desensitization time constant): 500 ms 10 mM glutamate + 16 µM compound; for Amplitude, applying glutamate alone after compound: washout/recovery
T1 construct: expressed in transfected cells; host or cells: HEK293T
T1 sequence (P19490 19-907 isoform P19490-2 limits assumed): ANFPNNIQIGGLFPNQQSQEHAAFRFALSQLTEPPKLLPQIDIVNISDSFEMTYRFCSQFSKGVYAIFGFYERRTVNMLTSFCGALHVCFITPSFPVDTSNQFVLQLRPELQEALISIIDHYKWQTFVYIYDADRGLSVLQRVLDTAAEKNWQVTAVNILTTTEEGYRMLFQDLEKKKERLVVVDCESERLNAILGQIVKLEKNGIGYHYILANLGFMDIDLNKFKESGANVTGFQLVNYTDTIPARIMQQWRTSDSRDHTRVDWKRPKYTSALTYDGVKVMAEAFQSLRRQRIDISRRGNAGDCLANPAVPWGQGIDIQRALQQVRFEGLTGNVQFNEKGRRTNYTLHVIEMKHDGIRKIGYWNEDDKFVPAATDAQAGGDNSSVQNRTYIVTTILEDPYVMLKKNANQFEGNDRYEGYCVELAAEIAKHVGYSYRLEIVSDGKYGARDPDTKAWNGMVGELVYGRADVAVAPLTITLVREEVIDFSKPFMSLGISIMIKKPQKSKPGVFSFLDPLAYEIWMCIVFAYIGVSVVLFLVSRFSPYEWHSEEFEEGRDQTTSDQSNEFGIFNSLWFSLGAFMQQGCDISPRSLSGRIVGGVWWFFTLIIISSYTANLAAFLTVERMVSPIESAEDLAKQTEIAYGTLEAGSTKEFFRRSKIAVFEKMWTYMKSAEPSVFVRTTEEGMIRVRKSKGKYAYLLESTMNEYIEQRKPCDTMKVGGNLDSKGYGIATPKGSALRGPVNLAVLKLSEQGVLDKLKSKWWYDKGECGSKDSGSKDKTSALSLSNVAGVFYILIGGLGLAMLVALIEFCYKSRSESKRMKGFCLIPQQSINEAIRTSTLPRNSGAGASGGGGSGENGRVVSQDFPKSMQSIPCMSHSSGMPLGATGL
Experimental: (§1) For the DNA preparation, the QIAGEN Plasmid Mini Kit was used to prepare up to 20 µg of high-copy plasmid DNA [30]. All AMPAR subunits utilized in this study included the flip isoform received from S. F. Heinemann (Salk Institute, La Jolla, CA, USA) and sub-cloned in pRK for expression in Human Embryonic Kidney Cells 293 (HEK293T). The human embryonic kidney (HEK293T) cells were obtained from Sigma, Taufkirchen, Germany, and we only used the HEK293T cell line due to their ease of growth and transfection and wide utilization in cell culture. For the transfection, we used the constructs GluA1, GluA2, GluA2/3, and GluA1/2, along with the GFP-expressing construct, as described in our previous work. The transfection reagents utilized were jetPRIME (Polyplus: New York, NY, USA) or Lipofectamine 2000 (Invitrogen; San Diego, CA, USA). The highly fluorescent cells were identified and selected for recording. The selected cells were seeded in Dulbecco Modified Eagle Medium (DMEM) (Sigma, Roedermark, Germany) containing 10% FBS, 0.1 mg/mL streptomycin, and 1 mM sodium pyruvate (Biological Industries; Beit-Haemek, Israel). The cells were incubated at 37 °C with 5% CO2 added to the medium and subcultured twice a week until they reached passage #20. Following a day and a half, the cells were replated on coverslips covered with Laminin (1 mg/mL; Sigma, Roedermark, Germany) for electrophysiological recordings. Our previous work has detailed the DNA preparation, cDNA transient transfection, and cell culture of HEK293T [30, 31, 32, 33].
(§2) After that, a patch was placed in front of a rapid perfusion system comprised of a theta tube flow pipe mounted on a piezoelectric translator that was used to wash the cell continuously from one barrel while the other supplied the compound of interest to the cell. Recordings were conducted 36–48 h after transfection at 22 °C, with a membrane potential of −60 mV. Currents were amplified using an integrated patch amplifier (IPA, Sutter Instruments, Novato, CA, USA), filtered at 2 kHz, and digitized at 10 kHz using SutterPatch Software v. 1.1.1 [46]. […] The extracellular medium contained (in mM): 150 NaCl, 2.8 KCl, 0.5 MgCl2, 2 CaCl2, and 10 HEPES, pH 7.4 adjusted with NaOH. The holding potential was typically −60 mV. The sample size was determined to be eight viable cells to calculate the mean inhibition of the derivative of interest. The solution exchange time (10–90% to peak) was estimated at […] using open-tip control at the end of a recording. Inhibition was calculated by comparing the current observed when the cell was supplied with glutamate alone and when the same cell was supplied with both glutamate and the 2,3-BDZ compounds. The initial tube containing only glutamate was reintroduced to the cell to ensure cellular safety and authenticate the antagonist’s findings. This step ensured that the glutamate-induced current observed before the administration of the antagonist was nearly indistinguishable from the current observed after administration.
(§3) The experiment served two purposes: first, determining the whole-cell current amplitude ratio in the absence and presence of the compounds (A/AI) to derive a constant inhibitory value independent of the rate measurement. Second, as an independent control method, a fast exchange solution flow methodology was employed using piezoelectric actuators, providing the fastest exchange solution with open-tip current rise times in the 100–300 μs range to assess the amplitude of the whole-cell current. Detailed data analysis of this process is provided in the supporting information (Tables S1–S4).
(§4) The data acquired were analyzed using Igor Pro7 (Wave Metrics, Inc., Portland, OR, USA). Receptor desensitization (τw des) and deactivation rates were estimated by fitting the current decay starting from 95% of the peak to the baseline current using a double exponential formulation. […]

GluA2 = biological target: T2, GluA2 (Rattus norvegicus, UniProt P19491); experiment: Whole-cell patch-clamp recording of homomeric GluA2 AMPAR expressed in HEK293T cells; assay type: cell-based; settings: for Amplitude with compound: 10 mM glutamate + 16 µM compound, mean±SEM; for A/AI (current amplitude ratio without/with compound): 10 mM glutamate; for t deact (weighted deactivation time constant): 1 ms 10 mM glutamate + 16 µM compound; for t des (weighted desensitization time constant): 500 ms 10 mM glutamate + 16 µM compound
T2 construct: expressed in transfected cells; host or cells: HEK293T
T2 sequence (P19491 22-883 isoform P19491-2 limits assumed): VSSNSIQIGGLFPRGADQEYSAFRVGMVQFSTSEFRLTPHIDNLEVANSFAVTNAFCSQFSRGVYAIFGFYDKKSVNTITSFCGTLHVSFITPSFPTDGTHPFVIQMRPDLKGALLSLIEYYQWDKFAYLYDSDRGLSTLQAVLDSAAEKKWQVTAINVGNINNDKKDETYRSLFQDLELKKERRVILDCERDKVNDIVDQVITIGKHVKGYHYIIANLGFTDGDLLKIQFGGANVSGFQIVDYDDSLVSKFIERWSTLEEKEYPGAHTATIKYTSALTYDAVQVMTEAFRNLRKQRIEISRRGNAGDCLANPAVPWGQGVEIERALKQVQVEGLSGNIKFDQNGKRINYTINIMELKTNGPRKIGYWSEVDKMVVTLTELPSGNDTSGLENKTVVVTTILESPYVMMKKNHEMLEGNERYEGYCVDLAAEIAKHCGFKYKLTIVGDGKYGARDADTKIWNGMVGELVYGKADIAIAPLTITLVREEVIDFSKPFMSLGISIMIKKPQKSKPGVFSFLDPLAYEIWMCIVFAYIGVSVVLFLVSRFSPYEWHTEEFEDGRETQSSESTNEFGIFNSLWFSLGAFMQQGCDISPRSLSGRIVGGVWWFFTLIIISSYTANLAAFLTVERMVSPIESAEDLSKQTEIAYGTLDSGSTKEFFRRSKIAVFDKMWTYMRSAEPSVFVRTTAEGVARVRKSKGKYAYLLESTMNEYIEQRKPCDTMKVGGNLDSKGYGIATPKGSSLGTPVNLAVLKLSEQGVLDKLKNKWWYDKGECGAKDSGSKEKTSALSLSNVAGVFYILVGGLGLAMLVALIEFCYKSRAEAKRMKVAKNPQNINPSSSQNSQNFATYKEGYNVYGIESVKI
Experimental: as §1, §2, §3, §4

[1] = Solubility observation during synthesis/characterisation; assay type: physicochemical; settings: qualitative, NMR in DMSO-d6 could not be run
Experimental: The synthesis of target compounds is carried out according to the sequence of reactions detailed in Scheme 1. SnCl4-catalyzed Friedel-Craft acylation of ethyl 3,4-methylenedioxy phenylacetate 1 with either 2-fluoro-4-nitrobezoylchloride 2a or 3-methoxy-4-nitrobenzoyl chloride 2b in dry CH2Cl2 yields the required ketoester intermediates 3a and 3b in 40% and 48% yields, respectively. […] Acetic acid promoted a cascade reaction (imine formation followed by cyclization) of ethyl 4,5-(methylenedioxy)-2-[…] with hydrazine hydrate in ethanol afforded 2,3-BZD-4 in a 33% yield. High yield and purity of 2,3-BZD-1 were achieved via Pd-catalyzed hydrogenation of the nitro group in 2,3-BZD-4 in methanol. The generated compounds have physical and spectral (1H-NMR) data consistent with their proposed structures.
5% Pd/C (50 mg) was added to a solution containing 1-(2-floro-4-nitrophenyl)-7,8-(methylenedioxy)-3,5-dihydro-4H-2,3-benzodiazepin-4-one (2,3-BDZ-3) (64.80 mg, 0.19 mmol) in methanol (5 mL) and formic acid (2 mL). After 48 h of stirring at ambient temperature in a hydrogen atmosphere, the Pd/C was filtered out, and the solvent was removed under pressure. The resultant residue was washed with methanol and then with diethyl ether. […]

GluA2/3 = biological target: T3, GluA2/3 (Rattus norvegicus, UniProt P19491+P19492); experiment: Whole-cell patch-clamp recording of heteromeric GluA2/3 AMPAR expressed in HEK293T cells; assay type: cell-based; settings: for Amplitude with compound: 10 mM glutamate + 16 µM compound, mean±SEM; for Amplitude with compound / A/AI (current amplitude ratio without/with compound) / t deact (weighted deactivation time constant) / t des (weighted desensitization time constant) / Amplitude, applying glutamate alone after compound: n=8; for A/AI (current amplitude ratio without/with compound): 10 mM glutamate; for t deact (weighted deactivation time constant): 1 ms 10 mM glutamate + 16 µM compound; for t des (weighted desensitization time constant): 500 ms 10 mM glutamate + 16 µM compound; for Amplitude, applying glutamate alone after compound: washout/recovery
T3 construct: expressed in transfected cells; host or cells: HEK293T
T3 sequence (P19491 22-883 isoform P19491-2 limits assumed): as above
T3 sequence (P19492 23-888 isoform P19492-2 limits assumed): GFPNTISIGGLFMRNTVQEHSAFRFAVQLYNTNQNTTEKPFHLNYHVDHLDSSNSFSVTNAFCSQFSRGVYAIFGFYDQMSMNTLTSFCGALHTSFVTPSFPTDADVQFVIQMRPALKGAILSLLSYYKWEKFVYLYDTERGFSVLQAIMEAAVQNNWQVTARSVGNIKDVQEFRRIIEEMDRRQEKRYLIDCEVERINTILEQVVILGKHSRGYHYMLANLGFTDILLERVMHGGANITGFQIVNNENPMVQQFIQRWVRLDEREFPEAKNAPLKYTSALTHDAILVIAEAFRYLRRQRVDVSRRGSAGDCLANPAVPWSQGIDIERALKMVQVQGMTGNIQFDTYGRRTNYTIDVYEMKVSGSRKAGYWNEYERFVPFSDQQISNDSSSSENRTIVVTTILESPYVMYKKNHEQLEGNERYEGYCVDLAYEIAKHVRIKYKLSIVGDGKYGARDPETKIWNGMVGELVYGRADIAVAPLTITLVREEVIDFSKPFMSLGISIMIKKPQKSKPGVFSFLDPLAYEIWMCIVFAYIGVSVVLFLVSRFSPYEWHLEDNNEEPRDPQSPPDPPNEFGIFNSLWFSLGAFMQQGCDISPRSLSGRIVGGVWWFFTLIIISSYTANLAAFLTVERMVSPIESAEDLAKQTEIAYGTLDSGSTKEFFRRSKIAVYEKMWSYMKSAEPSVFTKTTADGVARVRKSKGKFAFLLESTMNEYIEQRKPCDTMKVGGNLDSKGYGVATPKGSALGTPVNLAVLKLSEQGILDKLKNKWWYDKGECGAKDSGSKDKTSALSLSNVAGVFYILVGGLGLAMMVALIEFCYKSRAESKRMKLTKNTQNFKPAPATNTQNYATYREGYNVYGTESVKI
Experimental: as §1, §2, §3, §4

GluA1/2 = biological target: T4, GluA1/2 (Rattus norvegicus, UniProt P19490+P19491); experiment: Whole-cell patch-clamp recording of heteromeric GluA1/2 AMPAR expressed in HEK293T cells; assay type: cell-based; settings: for Amplitude with compound: 10 mM glutamate + 16 µM compound, mean±SEM; for Amplitude with compound / A/AI (current amplitude ratio without/with compound) / t deact (weighted deactivation time constant) / t des (weighted desensitization time constant) / Amplitude, applying glutamate alone after compound: n=8; for A/AI (current amplitude ratio without/with compound): 10 mM glutamate; for t deact (weighted deactivation time constant): 1 ms 10 mM glutamate + 16 µM compound; for t des (weighted desensitization time constant): 500 ms 10 mM glutamate + 16 µM compound; for Amplitude, applying glutamate alone after compound: washout/recovery
T4 construct: expressed in transfected cells; host or cells: HEK293T
T4 sequence (P19490 19-907 isoform P19490-2 limits assumed): as the sequence (P19490 19-907 isoform P19490-2 limits assumed) above
T4 sequence (P19491 22-883 isoform P19491-2 limits assumed): as the sequence (P19491 22-883 isoform P19491-2 limits assumed) above
Experimental: as §1, §2, §3, §4

AMPA receptor subunits = experiment: Whole-cell patch-clamp recording, statements over all tested AMPAR subunits (GluA1, GluA1/2, GluA2, GluA2/3) in HEK293T cells; assay type: cell-based; settings: 16 µM compound; for Effect on deactivation rate of the AMPAR subunits examined: 1 ms glutamate
Experimental: as §1, §2, §3, §4

[2] = 16 µM compound, 500 ms glutamate
[3] = log of IC50, read-out: Log IC50 (converted)
[4] = normalized peak current, -60 mV, pH 7.4, 22 °C, read-out: IC50

## Nc1ccc(C2=NNC(=O)Cc3cc4c(cc32)OCO4)c(F)c1 [2,3-BDZ-1, 1-(4-Amino-2-fluorophenyl)-7,8-(methylenedioxy)-3,5-dihydro-4H-2,3-benzodiazepin-4-one]
GluA1; [2]
  Reduction of desensitization rate: ~2 fold
GluA1; -60 mV, pH 7.4, 22 °C
  Amplitude with compound: 85±7.0 pA
GluA1; 16 µM compound
  A/AI (current amplitude ratio without/with compound): 11.08±1.0
GluA1
  t deact (weighted deactivation time constant): 6.3 ± 0.4 ms
  t des (weighted desensitization time constant): 1.1 ± 0.1 ms
  Amplitude, applying glutamate alone after compound: 935±39 pA
GluA1; [3]
  IC50: 3.24 µM
GluA1; [4]
  IC50: 3.26 µM
GluA2; [2]
  Reduction of desensitization rate: 4–5 fold
GluA2; -60 mV, pH 7.4, 22 °C, n=8
  Amplitude with compound: 108±9.0 pA
GluA2; 16 µM compound, n=8
  A/AI (current amplitude ratio without/with compound): 12.31±1.0
GluA2; n=8
  t deact (weighted deactivation time constant): 8.7 ± 0.6 ms
  t des (weighted desensitization time constant): 0.6 ± 0.05 ms
GluA2; [3]
  IC50: 3.02 µM
GluA2; [4]
  IC50: 3.02 µM
GluA2; washout/recovery, glutamate alone after compound, n=8
  Amplitude, applying glutamate alone after compound: 1322±33 pA
[1]
  Solubility (observation): low solubility
[1]; listed as 2,3-BZD-1
  Solubility (observation): highly insoluble
GluA2/3; [2]
  Reduction of desensitization rate: 3–4 fold
GluA2/3; -60 mV, pH 7.4, 22 °C
  Amplitude with compound: 49±4 pA
GluA2/3; 16 µM compound
  A/AI (current amplitude ratio without/with compound): 12.09±1.0
GluA2/3
  t deact (weighted deactivation time constant): 8.1 ± 0.7 ms
  t des (weighted desensitization time constant): 0.8 ± 0.08 ms
  Amplitude, applying glutamate alone after compound: 589±33 pA
GluA2/3; [3]
  IC50: 3.09 µM
GluA2/3; [4]
  IC50: 3.09 µM
GluA1/2; [2]
  Reduction of desensitization rate: ~2 fold
GluA1/2; -60 mV, pH 7.4, 22 °C
  Amplitude with compound: 51±7.0 pA
GluA1/2; 16 µM compound
  A/AI (current amplitude ratio without/with compound): 11.21±1.0
GluA1/2
  t deact (weighted deactivation time constant): 6.7 ± 0.6 ms
  t des (weighted desensitization time constant): 2.7 ± 0.2 ms
  Amplitude, applying glutamate alone after compound: 575±35 pA
GluA1/2; [3]
  IC50: 3.02 µM
GluA1/2; [4]
  IC50: 3.05 µM
AMPA receptor subunits
  Reduction in AMPAR subunit currents: 11–12 fold
  Effect on deactivation rate of the AMPAR subunits examined: almost triples

## O=C1Cc2cc3c(cc2C(c2ccc([N+](=O)[O-])cc2F)=NN1)OCO3 [2,3-BDZ-3]
GluA1; -60 mV, pH 7.4, 22 °C
  Amplitude with compound: 237±12 pA
GluA1; 16 µM compound
  A/AI (current amplitude ratio without/with compound): 3.94±0.2
GluA1
  t deact (weighted deactivation time constant): 2.4 ± 0.1 ms
  t des (weighted desensitization time constant): 2.1 ± 0.1 ms
  Amplitude, applying glutamate alone after compound: 936±46 pA
GluA1; [3]
  IC50: 5.75 µM
GluA1; [4]
  IC50: 5.8 µM
GluA2; -60 mV, pH 7.4, 22 °C, n=8
  Amplitude with compound: 326±17 pA
GluA2; 16 µM compound, n=8
  A/AI (current amplitude ratio without/with compound): 4.16±0.2
GluA2; n=8
  t deact (weighted deactivation time constant): 2.8 ± 0.1 ms
  t des (weighted desensitization time constant): 2.3 ± 0.1 ms
GluA2; [3]
  IC50: 5.75 µM
GluA2; [4]
  IC50: 5.74 µM
other
  melting point: 182 to 184 °C
GluA2/3; -60 mV, pH 7.4, 22 °C
  Amplitude with compound: 130±12 pA
GluA2/3; 16 µM compound
  A/AI (current amplitude ratio without/with compound): 4.08±0.3
GluA2/3
  t deact (weighted deactivation time constant): 2.9 ± 0.2 ms
  t des (weighted desensitization time constant): 2.5 ± 0.2 ms
  Amplitude, applying glutamate alone after compound: 525±22 pA
GluA2/3; [3]
  IC50: 5.75 µM
GluA2/3; [4]
  IC50: 5.76 µM
GluA1/2; -60 mV, pH 7.4, 22 °C
  Amplitude with compound: 144±11 pA
GluA1/2; 16 µM compound
  A/AI (current amplitude ratio without/with compound): 3.98±0.2
GluA1/2
  t deact (weighted deactivation time constant): 2.8 ± 0.2 ms
  t des (weighted desensitization time constant): 4.9 ± 0.3 ms
  Amplitude, applying glutamate alone after compound: 569±43 pA
GluA1/2; [3]
  IC50: 5.75 µM
GluA1/2; [4]
  IC50: 5.79 µM
AMPA receptor subunits
  Effect on desensitization rate: no change
  Reduction in AMPAR subunit currents: 4 fold
  Effect on deactivation rate of the AMPAR subunits examined: no change

— paper PMC10458471, “Electrophysiological Assessment of Newly Synthesized 2,3-Benzodiazepine Derivatives for Inhibiting the AMPA Receptor Channel” (Molecules, 2023)
